Source: PMC8142146 (Bioorganic chemistry, 2020)

How the values were obtained:
Format in all cases: biochemical
PARP1 = PARP1 (Homo sapiens, UniProt P09874); experiment: BPS PARP1 Chemiluminescent Activity Assay Kit
PARP2 = PARP2 (Homo sapiens, UniProt Q9UGN5); experiment: PARP-isoform screening, Chemiluminescent Activity Assay Kit; conditions: at 0.5 μM concentration
PARP3 = biological target: T1, PARP3 (Homo sapiens, UniProt Q9Y6F1); experiment: as above; conditions: Figure 5
T1 sequence (Q9Y6F1 1-533): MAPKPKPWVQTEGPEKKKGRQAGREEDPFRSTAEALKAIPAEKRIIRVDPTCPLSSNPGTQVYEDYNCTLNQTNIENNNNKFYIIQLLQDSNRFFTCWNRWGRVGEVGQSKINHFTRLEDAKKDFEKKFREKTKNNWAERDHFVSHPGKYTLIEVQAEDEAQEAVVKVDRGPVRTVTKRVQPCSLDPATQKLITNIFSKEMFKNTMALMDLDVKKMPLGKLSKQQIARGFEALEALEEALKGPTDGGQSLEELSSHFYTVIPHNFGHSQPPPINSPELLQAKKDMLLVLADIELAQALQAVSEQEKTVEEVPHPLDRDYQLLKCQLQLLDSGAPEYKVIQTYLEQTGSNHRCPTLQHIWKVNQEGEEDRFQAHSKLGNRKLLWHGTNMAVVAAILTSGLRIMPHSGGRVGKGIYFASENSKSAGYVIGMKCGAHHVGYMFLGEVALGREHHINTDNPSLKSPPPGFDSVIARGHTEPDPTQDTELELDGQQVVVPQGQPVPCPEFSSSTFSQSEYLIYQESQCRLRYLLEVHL

PARP8 = biological target: T2, PARP8 (Homo sapiens, UniProt Q8N3A8); experiment: as above; conditions: Figure 5
T2 sequence (Q8N3A8 1-854): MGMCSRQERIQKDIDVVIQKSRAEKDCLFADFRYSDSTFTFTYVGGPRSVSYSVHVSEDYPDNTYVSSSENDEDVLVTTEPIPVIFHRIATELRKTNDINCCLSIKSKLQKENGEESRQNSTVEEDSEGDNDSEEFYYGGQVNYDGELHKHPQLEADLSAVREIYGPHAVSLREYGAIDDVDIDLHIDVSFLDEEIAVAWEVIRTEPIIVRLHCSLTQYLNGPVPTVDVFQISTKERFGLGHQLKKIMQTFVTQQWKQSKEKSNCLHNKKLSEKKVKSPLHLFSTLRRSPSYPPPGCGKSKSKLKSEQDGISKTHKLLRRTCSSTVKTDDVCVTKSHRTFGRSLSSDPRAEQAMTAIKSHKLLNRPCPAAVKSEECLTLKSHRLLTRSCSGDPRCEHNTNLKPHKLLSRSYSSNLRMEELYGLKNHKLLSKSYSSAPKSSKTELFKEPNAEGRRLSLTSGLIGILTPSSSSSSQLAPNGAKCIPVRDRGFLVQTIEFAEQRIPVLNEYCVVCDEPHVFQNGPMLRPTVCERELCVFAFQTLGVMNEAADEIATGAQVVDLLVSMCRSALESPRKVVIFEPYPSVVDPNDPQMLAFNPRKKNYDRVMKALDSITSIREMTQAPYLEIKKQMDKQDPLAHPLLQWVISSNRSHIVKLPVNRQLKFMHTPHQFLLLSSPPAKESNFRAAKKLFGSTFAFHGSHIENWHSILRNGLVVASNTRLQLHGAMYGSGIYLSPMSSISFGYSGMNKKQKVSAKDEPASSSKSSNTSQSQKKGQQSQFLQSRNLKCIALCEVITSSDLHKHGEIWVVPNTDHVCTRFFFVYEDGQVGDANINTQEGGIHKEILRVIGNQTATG

PARP10 = biological target: T3, PARP10 (Homo sapiens, UniProt Q53GL7); experiment: as above; conditions: Figure 5
T3 sequence (Q53GL7 1-1025): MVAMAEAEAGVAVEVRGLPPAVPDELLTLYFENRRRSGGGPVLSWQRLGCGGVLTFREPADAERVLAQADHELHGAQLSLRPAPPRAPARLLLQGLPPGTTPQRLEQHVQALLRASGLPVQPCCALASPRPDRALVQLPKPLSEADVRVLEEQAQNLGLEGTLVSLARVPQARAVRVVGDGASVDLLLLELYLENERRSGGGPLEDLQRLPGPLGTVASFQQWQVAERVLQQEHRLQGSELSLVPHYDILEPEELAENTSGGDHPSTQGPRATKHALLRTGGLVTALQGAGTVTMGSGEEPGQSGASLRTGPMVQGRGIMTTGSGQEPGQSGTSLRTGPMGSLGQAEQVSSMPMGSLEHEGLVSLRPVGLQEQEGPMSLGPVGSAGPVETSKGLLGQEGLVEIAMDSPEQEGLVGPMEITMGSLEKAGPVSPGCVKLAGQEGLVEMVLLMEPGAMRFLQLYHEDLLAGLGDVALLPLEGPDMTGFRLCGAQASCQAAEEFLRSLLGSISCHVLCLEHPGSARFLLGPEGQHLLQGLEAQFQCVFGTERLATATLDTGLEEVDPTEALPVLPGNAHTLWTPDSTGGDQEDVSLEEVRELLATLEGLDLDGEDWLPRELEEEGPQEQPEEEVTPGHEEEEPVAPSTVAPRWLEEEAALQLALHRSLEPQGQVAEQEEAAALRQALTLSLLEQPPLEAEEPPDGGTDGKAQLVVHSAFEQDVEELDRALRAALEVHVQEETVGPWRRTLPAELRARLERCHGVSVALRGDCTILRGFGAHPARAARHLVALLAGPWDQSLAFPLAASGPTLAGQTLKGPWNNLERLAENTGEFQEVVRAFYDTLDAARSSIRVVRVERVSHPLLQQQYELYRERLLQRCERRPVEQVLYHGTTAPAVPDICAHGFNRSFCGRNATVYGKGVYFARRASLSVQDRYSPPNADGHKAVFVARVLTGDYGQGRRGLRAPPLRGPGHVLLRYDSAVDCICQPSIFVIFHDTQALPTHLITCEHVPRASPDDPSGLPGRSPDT

PARP14 = PARP14 (Homo sapiens, UniProt Q460N5); experiment: as above; conditions: Figure 5
Chain of PARP14 (Q460N5 whole entry): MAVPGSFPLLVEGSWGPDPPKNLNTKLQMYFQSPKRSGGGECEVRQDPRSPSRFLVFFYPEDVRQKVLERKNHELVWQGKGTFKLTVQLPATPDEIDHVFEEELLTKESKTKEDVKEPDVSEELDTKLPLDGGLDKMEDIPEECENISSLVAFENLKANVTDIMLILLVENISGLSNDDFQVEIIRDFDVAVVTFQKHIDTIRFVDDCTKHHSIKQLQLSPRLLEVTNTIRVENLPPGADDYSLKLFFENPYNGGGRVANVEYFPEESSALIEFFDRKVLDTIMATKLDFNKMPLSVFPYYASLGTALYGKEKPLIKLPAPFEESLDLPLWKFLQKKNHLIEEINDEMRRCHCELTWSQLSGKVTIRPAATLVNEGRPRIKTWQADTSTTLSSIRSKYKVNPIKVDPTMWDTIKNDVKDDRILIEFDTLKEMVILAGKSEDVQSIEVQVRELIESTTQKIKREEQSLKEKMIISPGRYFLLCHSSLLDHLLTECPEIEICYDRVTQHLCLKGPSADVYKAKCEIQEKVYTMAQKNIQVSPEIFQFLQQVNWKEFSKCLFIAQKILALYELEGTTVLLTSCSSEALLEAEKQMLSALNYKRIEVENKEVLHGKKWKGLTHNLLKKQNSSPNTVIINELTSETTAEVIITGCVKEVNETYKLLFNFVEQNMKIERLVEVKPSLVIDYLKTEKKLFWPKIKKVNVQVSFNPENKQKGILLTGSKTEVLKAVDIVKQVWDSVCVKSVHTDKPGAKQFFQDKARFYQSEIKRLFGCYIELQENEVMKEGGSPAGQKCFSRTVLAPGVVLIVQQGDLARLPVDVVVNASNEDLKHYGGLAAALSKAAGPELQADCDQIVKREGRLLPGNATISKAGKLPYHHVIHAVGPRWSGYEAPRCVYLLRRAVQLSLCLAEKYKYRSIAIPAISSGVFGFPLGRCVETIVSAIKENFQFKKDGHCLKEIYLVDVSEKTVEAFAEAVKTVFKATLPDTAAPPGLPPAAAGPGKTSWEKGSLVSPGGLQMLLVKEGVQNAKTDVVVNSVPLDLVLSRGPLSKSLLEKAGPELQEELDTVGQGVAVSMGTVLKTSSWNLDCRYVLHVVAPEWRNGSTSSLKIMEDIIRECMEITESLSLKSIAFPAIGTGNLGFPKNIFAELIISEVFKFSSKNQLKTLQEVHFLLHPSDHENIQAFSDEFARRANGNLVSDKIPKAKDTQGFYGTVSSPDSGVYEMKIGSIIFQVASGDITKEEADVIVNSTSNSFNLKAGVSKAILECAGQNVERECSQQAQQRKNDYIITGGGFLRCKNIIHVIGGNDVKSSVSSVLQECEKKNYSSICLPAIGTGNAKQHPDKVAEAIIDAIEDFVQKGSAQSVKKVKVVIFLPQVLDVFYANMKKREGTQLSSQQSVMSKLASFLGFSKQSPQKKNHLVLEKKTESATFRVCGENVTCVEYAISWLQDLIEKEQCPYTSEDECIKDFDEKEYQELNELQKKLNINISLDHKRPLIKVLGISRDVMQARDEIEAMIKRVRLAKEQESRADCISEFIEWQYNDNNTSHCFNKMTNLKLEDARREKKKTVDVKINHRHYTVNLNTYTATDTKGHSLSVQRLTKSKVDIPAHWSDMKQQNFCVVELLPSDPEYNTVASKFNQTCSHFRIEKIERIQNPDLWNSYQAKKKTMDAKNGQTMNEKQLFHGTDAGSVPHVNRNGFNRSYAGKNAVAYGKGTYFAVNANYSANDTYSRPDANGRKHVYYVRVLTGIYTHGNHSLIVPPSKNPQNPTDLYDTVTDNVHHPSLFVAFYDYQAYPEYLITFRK

Chain of PARP2 (Q9UGN5 whole entry, canonical isoform): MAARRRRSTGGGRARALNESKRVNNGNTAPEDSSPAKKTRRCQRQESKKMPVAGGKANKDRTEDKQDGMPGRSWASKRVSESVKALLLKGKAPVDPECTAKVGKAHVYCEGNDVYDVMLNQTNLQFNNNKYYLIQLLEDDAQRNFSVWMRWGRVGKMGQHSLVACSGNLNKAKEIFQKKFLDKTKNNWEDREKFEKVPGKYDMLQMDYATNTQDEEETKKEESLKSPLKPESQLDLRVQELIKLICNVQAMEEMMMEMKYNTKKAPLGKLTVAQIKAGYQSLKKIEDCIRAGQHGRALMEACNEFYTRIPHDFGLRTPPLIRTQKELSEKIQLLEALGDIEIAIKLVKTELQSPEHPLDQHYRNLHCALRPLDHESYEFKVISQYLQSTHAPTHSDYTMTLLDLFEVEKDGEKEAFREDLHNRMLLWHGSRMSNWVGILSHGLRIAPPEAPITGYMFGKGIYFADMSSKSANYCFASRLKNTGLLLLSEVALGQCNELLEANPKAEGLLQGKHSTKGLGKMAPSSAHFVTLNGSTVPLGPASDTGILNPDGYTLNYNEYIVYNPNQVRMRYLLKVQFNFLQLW
Chain of PARP1 (P09874 whole entry, canonical isoform): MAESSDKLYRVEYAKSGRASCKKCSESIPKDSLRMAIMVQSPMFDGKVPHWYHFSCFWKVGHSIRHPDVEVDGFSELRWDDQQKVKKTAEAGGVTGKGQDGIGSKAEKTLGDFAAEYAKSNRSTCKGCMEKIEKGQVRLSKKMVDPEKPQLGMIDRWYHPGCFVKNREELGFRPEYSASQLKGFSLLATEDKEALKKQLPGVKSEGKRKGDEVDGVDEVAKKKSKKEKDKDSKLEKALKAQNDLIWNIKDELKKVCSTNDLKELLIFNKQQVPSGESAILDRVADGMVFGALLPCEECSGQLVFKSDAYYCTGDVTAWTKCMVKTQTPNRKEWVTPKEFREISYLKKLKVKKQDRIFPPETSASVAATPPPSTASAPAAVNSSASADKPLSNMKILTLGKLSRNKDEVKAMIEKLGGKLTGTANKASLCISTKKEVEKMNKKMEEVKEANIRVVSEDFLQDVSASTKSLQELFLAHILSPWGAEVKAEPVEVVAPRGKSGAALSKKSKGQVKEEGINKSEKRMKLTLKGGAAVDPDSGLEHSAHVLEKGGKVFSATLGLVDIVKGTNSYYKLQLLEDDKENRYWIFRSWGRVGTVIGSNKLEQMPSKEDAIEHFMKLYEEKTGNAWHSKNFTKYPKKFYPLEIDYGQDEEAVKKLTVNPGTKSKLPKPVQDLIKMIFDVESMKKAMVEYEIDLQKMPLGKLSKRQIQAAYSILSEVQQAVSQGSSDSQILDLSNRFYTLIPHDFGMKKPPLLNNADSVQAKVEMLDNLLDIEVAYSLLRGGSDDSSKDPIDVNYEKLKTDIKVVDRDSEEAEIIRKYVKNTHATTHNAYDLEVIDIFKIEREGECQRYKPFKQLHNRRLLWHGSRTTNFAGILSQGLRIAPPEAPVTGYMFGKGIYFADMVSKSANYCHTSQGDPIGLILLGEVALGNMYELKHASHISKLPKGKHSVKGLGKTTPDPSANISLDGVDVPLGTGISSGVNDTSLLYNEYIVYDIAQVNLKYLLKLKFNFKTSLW

NC(=O)c1cccc2c1O/C(=C\c1ccc(O)cc1)C(=O)N2 [Compound 49, (Z)-2-(4-Hydroxybenzylidene)-3-oxo-3,4-dihydro-2H-benzo[b][1,4]oxazine-8-carboxamide]
IC50 (PARP1): 82 ± 45 nM | PARP2 inhibition (PARP2): complete inhibition | PARP3 inhibition (PARP3): substantially inhibited | PARP8 inhibition (PARP8): did not interfere | PARP10 inhibition (PARP10): did not interfere | PARP14 inhibition (PARP14): did not interfere
